Results: US9243281B2, “Neuroprotective chemicals and methods for identifying and using same” (Board of Regents of The University of Texas System, priority 2013, dated 2016)

Tests used:
[1] = system: hippocampal neurogenesis (Dentate Gyrus); assay: in vivo neurogenesis assay (BrdU+ cells in dentate gyrus); design: species or system mice; details: living mice; vehicle (DMSO) 7.3
Summary of the method: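 New hippocampal cells were tracked by daily BrdU injections and anti-BrdU staining of brain sections. Adult mice (two per pool of ten compounds) got week-long intracerebroventricular infusion by mini-pump, dosed for mid-nanomolar exposure.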

p70 (NAMPT) = target: T1, p70 (NAMPT) (Homo sapiens, UniProt P43490); assay: binding competition for photo-crosslinking of P7C3-S326 to p70 in H2122 cells; details: 0.3 μM P7C3-S326 plus 5 μM competitor, p70 band intensity, P7C3-S326 alone compared with plus competitor, vehicle 1.0
T1 construct: endogenous in cells; host or cells: H2122 lung cancer cells
Summary of the method: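 Competition for photo-crosslinking: P7C3 analogs (5 uM) were added alongside the 0.3 μM P7C3-S326 probe to H2122 cells for 2 hours before 15 minutes of 306 nm UV irradiation. In-gel fluorescence of the p70 band after click labeling was normalized to DMSO.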

T1 sequence (P43490 whole entry): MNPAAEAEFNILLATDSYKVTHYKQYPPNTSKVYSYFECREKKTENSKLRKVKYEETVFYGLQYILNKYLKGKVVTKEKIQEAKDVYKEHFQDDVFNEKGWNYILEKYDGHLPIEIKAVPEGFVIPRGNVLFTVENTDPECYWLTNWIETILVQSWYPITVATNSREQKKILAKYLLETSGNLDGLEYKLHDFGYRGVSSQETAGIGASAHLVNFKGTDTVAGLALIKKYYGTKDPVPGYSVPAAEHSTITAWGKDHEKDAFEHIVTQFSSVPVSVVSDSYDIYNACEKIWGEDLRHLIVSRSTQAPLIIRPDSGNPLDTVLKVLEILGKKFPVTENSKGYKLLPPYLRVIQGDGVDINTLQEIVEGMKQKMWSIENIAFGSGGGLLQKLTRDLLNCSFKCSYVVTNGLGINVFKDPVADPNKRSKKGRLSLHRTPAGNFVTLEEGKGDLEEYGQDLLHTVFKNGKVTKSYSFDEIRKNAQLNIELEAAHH

CN(C)C(=O)Cn1c2ccc(Br)cc2c2cc(Br)ccc21 [S215]
Neurogenesis # BrdU+ Cells (X10E06)/mm3 Dentate Gyrus [1]: 8.3 (X10E06)/mm3 | Binding competition (p70 (NAMPT)): 3.6

N#Cc1ccc2[nH]c3ccc(Br)cc3c2c1 [S216]
Neurogenesis # BrdU+ Cells (X10E06)/mm3 Dentate Gyrus [1]: 13.0 (X10E06)/mm3 | Binding competition (p70 (NAMPT)): 4.4

CC(=O)NCC(F)Cn1c2ccc(Br)cc2c2cc(Br)ccc21 (stereo not drawn) [S218]
Neurogenesis # BrdU+ Cells (X10E06)/mm3 Dentate Gyrus [1]: 9.5 (X10E06)/mm3 | Binding competition (p70 (NAMPT)): 3.2

O=C(CCCCCC1SCC2NC(=O)NC21)NCCCCCOc1cccc(NCC(O)Cn2c3ccc(Br)cc3c3cc(Br)ccc32)c1 (stereo not drawn) [S219]
Neurogenesis # BrdU+ Cells (X10E06)/mm3 Dentate Gyrus [1]: 8.4 (X10E06)/mm3 | Binding competition (p70 (NAMPT)): 3.1

CC(C(N)=O)n1c2ccc(Br)cc2c2cc(Br)ccc21 (stereo not drawn) [S220]
Neurogenesis # BrdU+ Cells (X10E06)/mm3 Dentate Gyrus [1]: 10.5 (X10E06)/mm3 | Binding competition (p70 (NAMPT)): 2.9

N#Cc1cc2c(cn1)[nH]c1ccc(Br)cc12 [S221]
Neurogenesis # BrdU+ Cells (X10E06)/mm3 Dentate Gyrus [1]: 14.8 (X10E06)/mm3 | Binding competition (p70 (NAMPT)): 2.9

NC(=O)c1ccc2[nH]c3ccc(Br)cc3c2c1 [S223]
Neurogenesis # BrdU+ Cells (X10E06)/mm3 Dentate Gyrus [1]: 7.9 (X10E06)/mm3 | Binding competition (p70 (NAMPT)): 3.0

N#Cc1ccc2c(c1)c1cc(Br)ccc1n2CC(=O)O [S224]
Neurogenesis # BrdU+ Cells (X10E06)/mm3 Dentate Gyrus [1]: 10.1 (X10E06)/mm3 | Binding competition (p70 (NAMPT)): 1.3

O=C(O)c1ccc2[nH]c3ccc(Br)cc3c2c1 [S225]
Neurogenesis # BrdU+ Cells (X10E06)/mm3 Dentate Gyrus [1]: 15.2 (X10E06)/mm3 | Binding competition (p70 (NAMPT)): 2.2

O=C(O)Cn1c2ccc(Br)cc2c2cc(C(=O)O)ncc21 [S227]
Neurogenesis # BrdU+ Cells (X10E06)/mm3 Dentate Gyrus [1]: 12.9 (X10E06)/mm3 | Binding competition (p70 (NAMPT)): 0.9

Cc1ccc2[nH]c3ccc(Br)cc3c2c1 [S228]
Neurogenesis # BrdU+ Cells (X10E06)/mm3 Dentate Gyrus [1]: 20.2 (X10E06)/mm3 | Binding competition (p70 (NAMPT)): 2.0

O=C(Cn1c2ccc(Br)cc2c2cc(Br)ccc21)NO [S231]
Neurogenesis # BrdU+ Cells (X10E06)/mm3 Dentate Gyrus [1]: 13.1 (X10E06)/mm3 | Binding competition (p70 (NAMPT)): 1.7

Brc1ccc2[nH]c3ccccc3c2c1 [S236]
Neurogenesis # BrdU+ Cells (X10E06)/mm3 Dentate Gyrus [1]: 12.3 (X10E06)/mm3 | Binding competition (p70 (NAMPT)): 1.7

Cc1ccc2[nH]c3ccc(C)cc3c2c1 [S237]
Neurogenesis # BrdU+ Cells (X10E06)/mm3 Dentate Gyrus [1]: 11.8 (X10E06)/mm3 | Binding competition (p70 (NAMPT)): 1.5

NC(=O)c1ccc2c(c1)c1cc(Br)ccc1n2CC(=O)O [S238]
Neurogenesis # BrdU+ Cells (X10E06)/mm3 Dentate Gyrus [1]: 9.4 (X10E06)/mm3 | Binding competition (p70 (NAMPT)): 0.9

O=C(O)Cn1c2ccc(Br)cc2c2cc(C(=O)O)ccc21 [S239]
Neurogenesis # BrdU+ Cells (X10E06)/mm3 Dentate Gyrus [1]: 11.4 (X10E06)/mm3 | Binding competition (p70 (NAMPT)): 0.9

Cc1ccc2c(c1)c1cc(Br)ccc1n2CC(=O)O [S240]
Neurogenesis # BrdU+ Cells (X10E06)/mm3 Dentate Gyrus [1]: 14.3 (X10E06)/mm3 | Binding competition (p70 (NAMPT)): 1.7

COc1cccc(N(CC(F)Cn2c3ccc(Br)cc3c3cc(Br)ccc32)S(=O)(=O)C(F)(F)F)c1 (stereo not drawn) [S241]
Neurogenesis # BrdU+ Cells (X10E06)/mm3 Dentate Gyrus [1]: 15.5 (X10E06)/mm3 | Binding competition (p70 (NAMPT)): 1.3

O=C(O)CCc1c[nH]c2ccccc12 [S242]
Neurogenesis # BrdU+ Cells (X10E06)/mm3 Dentate Gyrus [1]: 10.8 (X10E06)/mm3 | Binding competition (p70 (NAMPT)): 1.2

COc1cccc(N(CC(O)Cn2c3ccc(Br)cc3c3cc(Br)ccc32)S(=O)(=O)C(F)(F)F)c1 (stereo not drawn) [S244]
Neurogenesis # BrdU+ Cells (X10E06)/mm3 Dentate Gyrus [1]: 11.6 (X10E06)/mm3 | Binding competition (p70 (NAMPT)): 1.1

CN(C)c1nc(O)c2[nH]c3ccccc3c2n1 [S245]
Neurogenesis # BrdU+ Cells (X10E06)/mm3 Dentate Gyrus [1]: 16.2 (X10E06)/mm3 | Binding competition (p70 (NAMPT)): 1.0

CCOC(=O)c1ncc2c(n1)c1ccccc1n2S(=O)(=O)c1ccc(C)cc1 [S246]
Neurogenesis # BrdU+ Cells (X10E06)/mm3 Dentate Gyrus [1]: 14.5 (X10E06)/mm3 | Binding competition (p70 (NAMPT)): 1.3

CCOC(=O)C1=NCc2c(c3ccccc3n2S(=O)(=O)c2ccc(C)cc2)N1 [S247]
Neurogenesis # BrdU+ Cells (X10E06)/mm3 Dentate Gyrus [1]: 15.6 (X10E06)/mm3 | Binding competition (p70 (NAMPT)): 1.6

N[C@@H](Cc1c[nH]c2ccccc12)C(=O)O [S248]
Neurogenesis # BrdU+ Cells (X10E06)/mm3 Dentate Gyrus [1]: 10.1 (X10E06)/mm3 | Binding competition (p70 (NAMPT)): 1.3
